Laboratory results from patent US20100284985A1, “Composition” (Danisco A/S, priority 2007, published 2010).

Columns and labels:
[1] = test system: Bacillus licheniformis DCS 561; experiment: MIC assay, LAE; assay type: cell-based
Description: (§1) The Minimal Inhibition Concentration Assay (MIC) is a 96 well liquid based assay developed for a semi-automated assessment system and performed essentially as described in (7). […] From an overnight culture […] of each strain was inoculated in one well corresponding to an approximate inoculation density of 10^3-10^4 cells/well. Media used were CASO, MRS and YM (Appendix 1). Strains were incubated at 20° C., 25° C., 37° C. and under aerobic/anaerobic conditions depending on the preferred conditions for the particular strain (Appendix 1). At time zero, after adding the AM, the optical density (O.D.) of the bacterial culture is measured at 620 nm and then again after 24 hours. […] MIC is defined as the lowest concentration of the AM that will inhibit measurable growth. A bacteriostatic effect is defined as the OD620 at 24 h being less than or equal to 20% of the growth control.

[2] = test system: Brochothrix thermosphacta DCS 780; experiment: MIC assay, LAE; assay type: cell-based
Description: as §1

[3] = test system: Clostridium sporogenes (spores) DCS 541sp; experiment: MIC assay, LAE; assay type: cell-based; conditions: ppm of the active component
Description: as §1

[4] = test system: Clostridium sporogenes (spores) DCS 812sp; experiment: MIC assay, LAE; assay type: cell-based; conditions: ppm of the active component
Description: as §1

[5] = test system: Clostridium sporogenes DCS 812; experiment: MIC assay, LAE; assay type: cell-based
Description: as §1

[6] = test system: Escherichia coli DCS 497; experiment: MIC assay, LAE; assay type: cell-based
Description: as §1

[7] = test system: Leuconostoc spp. DCS 947; experiment: MIC assay, LAE; assay type: cell-based; conditions: ppm of the active component
Description: as §1

[8] = test system: Listeria monocytogenes DCS 489; experiment: MIC assay, LAE; assay type: cell-based
Description: as §1

[9] = test system: Zygosaccharomyces bailii DCS 538; experiment: MIC assay, LAE; assay type: cell-based
Description: as §1

[10] = test system: Lactobacilllus curvatus DCS 609; experiment: MIC assay, LAE; assay type: cell-based, Lactobacillus curvatus; conditions: Latilactobacillus curvatus, DCS609, ppm of the active component
Description: as §1

[11] = test system: Lactobacilllus sakei DCS 608; experiment: MIC assay, LAE; assay type: cell-based, Lactobacillus sakei; conditions: Latilactobacillus sakei, DCS608, ppm of the active component
Description: as §1

[12] = test system: Bacillus licheniformis DCS 561; experiment: FIC checkerboard assay, LAE with Nisaplin; assay type: cell-based
Description: (§2) The Fractional Inhibition Concentration (FIC) assay is also a 96 well liquid based assay with a checkerboard titration layout (7, 8), one plate for each strain and sets of concentrations. Cultivation media can be seen in Appendix 1. O.D. at 620 nm is read at zero hours (at strain addition) and after a 24-hour incubation period. […] The FICs for the two substances are plotted towards each other in a graph called an isobologram. […] Additionally, the FIC index is then calculated as follows: FICindex=FICA+FICB, if FICindex is lower than 1 there is synergy, if it is higher than one there is antagony and if it is equal to one there is an additive effect.
(§3) FICs were determined for LAE in combination with Nisaplin and Natamax for strains in Table 1A and B.

[13] = test system: Brochothrix thermosphacta DCS 780; experiment: FIC checkerboard assay, LAE with Nisaplin; assay type: cell-based
Description: as §2, §3

[14] = test system: Listeria monocytogenes DCS 489; experiment: FIC checkerboard assay, LAE with Nisaplin; assay type: cell-based
Description: as §2, §3

[15] = Bacillus licheniformis, DCS561, ppm of the active component
[16] = Brochothrix thermosphacta, DCS780, ppm of the active component
[17] = Clostridium sporogenes, DCS812, ppm of the active component
[18] = Escherichia coli, DCS497, ppm of the active component
[19] = Listeria monocytogenes, DCS489, ppm of the active component
[20] = Zygosaccharomyces bailii, DCS538, ppm of the active component

CCCCCCCCCCCC(=O)N[C@@H](CCCNC(=N)N)C(=O)OCC.Cl [LAE, N^α-Lauroyl-L-arginine ethyl ester monohydrochloride]
MBC [1, 15]: 14.6 µg/mL
MIC [1, 15]: 14.6 µg/mL
increased lag phase ([1]; ppm of the active component): 4.3 ppm
MBC [2, 16]: 9.7 µg/mL
MIC [2, 16]: 8.1 µg/mL
increased lag phase ([2]; ppm of the active component): 4.3 ppm
MBC ([3]; Clostridium sporogenes): 14.6 µg/mL
MIC ([3]; Clostridium sporogenes): 9.7 µg/mL
increased lag phase [3]: 9.7 ppm
MBC ([4]; Clostridium sporogenes): 8.1 µg/mL
MIC ([4]; Clostridium sporogenes): 4.3 µg/mL
increased lag phase [4]: 4.3 ppm
MBC [5, 17]: 9.7 µg/mL
MIC [5, 17]: 9.7 µg/mL
increased lag phase ([5]; ppm of the active component): 9.7 ppm
MBC [6, 18]: 21.9 µg/mL
MIC [6, 18]: 21.9 µg/mL
increased lag phase ([6]; ppm of the active component): 18.2 ppm
MBC ([7]; Leuconostoc): > 166 µg/mL
MIC ([7]; Leuconostoc): 32.8 µg/mL
increased lag phase [7]: 32.8 ppm
MBC [8, 19]: 14.6 µg/mL
MIC [8, 19]: 12.1 µg/mL
increased lag phase ([8]; ppm of the active component): 9.7 ppm
MBC [9, 20]: 6.5 µg/mL
MIC [9, 20]: 6.5 µg/mL
increased lag phase ([9]; ppm of the active component): 4.3 ppm
MBC [10]: > 166 µg/mL
MIC [10]: 32.8 µg/mL
MBC [11]: > 166 µg/mL
MIC [11]: 32.8 µg/mL
FICLAE ([12]; Nisaplin 50 ppm + LAE 22.2 ppm): 0.44
FICLAE ([12]; Nisaplin 130 ppm + LAE 14.8 ppm): 0.30
FICLAE ([12]; Nisaplin 210 ppm + LAE 9.9 ppm): 0.20
FICLAE ([12]; Nisaplin 250 ppm + LAE 0 ppm): 0.00
FICLAE ([13]; Nisaplin 50 ppm + LAE 33 ppm): 0.67
FICLAE ([13]; Nisaplin 90 ppm + LAE 22 ppm): 0.44
FICLAE ([13]; Nisaplin 210 ppm + LAE 0 ppm): 0.00
FICLAE ([14]; Nisaplin 0 ppm + LAE 50 ppm): 1.00
FICLAE ([14]; Nisaplin 50 ppm + LAE 22 ppm): 0.44
FICLAE ([14]; Nisaplin 90 ppm + LAE 15 ppm): 0.30
FICLAE ([14]; Nisaplin 130 ppm + LAE 5 ppm): 0.09
FICLAE ([14]; Nisaplin 170 ppm + LAE 4 ppm): 0.04
FICLAE ([14]; Nisaplin 210 ppm + LAE 1 ppm): 0.02
FICLAE ([14]; Nisaplin 250 ppm + LAE 0 ppm): 0.00
